For five compounds, MIC and LD50 results are on record in patent EP0319906A2, “Novel quinoline derivatives, processes for preparation thereof and antibacterial agent containing them” (Dainippon Pharmaceutical Co., Ltd., priority 1987, dated 1989).

The subject of data set [1] is S. epidermidis No. 8. The data set is described as follows: In vitro antibacterial activity, twofold agar-dilution MIC. It counts as cell-based. The conditions noted are these: Staphylococcus epidermidis; S. epidermidis No. 8; Mueller-Hinton agar, 20-hour incubation at 37 °C; calculated for free base; read-out: minimum inhibitory concentrations (MIC). As to the method:
(§1) The figures in the table show minimum inhibitory concentrations (MIC) (µg/ml), calculated for free base. […] One loopful of an overnight culture of test organisms in Mueller-Hinton broth was inoculated onto 10 ml drug- containing agar layers in petri dishes. Bacterial inocula contained approximately 10⁶ colonyl-forming units. […] The MIC was defined as the lowest drug concentration which prevented visible bacterial growth.

Data set [2] deals with S. aureus Terajima. Described as above. The conditions noted are these: Staphylococcus aureus; S. aureus Terajima; Mueller-Hinton agar, 20-hour incubation at 37 °C; calculated for free base; read-out: minimum inhibitory concentrations (MIC). It counts as cell-based. The protocol: as §1
Data set [3] has as its system P. aeruginosa 12. Described as above. It counts as cell-based. The settings on record: Pseudomonas aeruginosa; P. aeruginosa 12; Mueller-Hinton agar, 20-hour incubation at 37 °C; calculated for free base; read-out: minimum inhibitory concentrations (MIC). The protocol: as §1
Data set [4] concerns S. aureus 209 JC-1. The data set is described as above. It counts as cell-based. The conditions noted are these: Staphylococcus aureus, 209JC1; S. aureus 209 JC-1; Mueller-Hinton agar, 20-hour incubation at 37 °C; calculated for free base; read-out: minimum inhibitory concentrations (MIC). As to the method: as §1
The subject of data set [5] is E. coli P-5101. Described as above. It counts as cell-based. The settings on record: Escherichia coli, P5101; E. coli P-5101; Mueller-Hinton agar, 20-hour incubation at 37 °C; calculated for free base; read-out: minimum inhibitory concentrations (MIC). The protocol: as §1
The test system of data set [6] is S. aureus No. 80. The description is as above. It counts as cell-based. The conditions noted are these: Staphylococcus aureus; S. aureus No. 80; Mueller-Hinton agar, 20-hour incubation at 37 °C; calculated for free base; read-out: minimum inhibitory concentrations (MIC). The protocol: as §1
For data set [7], the system named is E. coli NIHJ JC-2. Described as above. The conditions noted are these: Escherichia coli, NIHJJC2; E. coli NIHJ JC-2; Mueller-Hinton agar, 20-hour incubation at 37 °C; calculated for free base; read-out: minimum inhibitory concentrations (MIC). It counts as cell-based. The protocol: as §1
Data set [8] has as its system S. pyogenes A65. The description is as above. The conditions noted are these: Streptococcus pyogenes; S. pyogenes A65; Mueller-Hinton agar, 20-hour incubation at 37 °C; calculated for free base; read-out: minimum inhibitory concentrations (MIC). It counts as cell-based. As to the method:
as §1

In data set [9] the test system is S. marcescens S-9. Described as above. It counts as cell-based. The conditions noted are these: Serratia marcescens, S9; S. marcescens S-9; Mueller-Hinton agar, 20-hour incubation at 37 °C; calculated for free base; read-out: minimum inhibitory concentrations (MIC). As to the method: as §1
Data set [10] in a line: in vivo. The conditions noted are these: mouse, po. The protocol: A suspension containing each of compounds of this invention in various concentrations was orally given to male mice (ddY) at a dose of 0.1 ml per 10 g of body weight. The number of dead mice was counted after 7 days, and the value of median lethal dose (LD₅₀, mg/kg) was calculated in accordance with the Behrens-Kaerber method.

The subject of data set [11] is C. Trachomatics G/ur 1448. The data set is described as follows: Antichlamydia activity, MIC in McCoy cells (inclusion bodies). It counts as cell-based. The conditions noted are these: C. Trachomatics G/ur 1448; McCoy cells, 36 °C for 40-48 hours; calculated for free base; read-out: minimum inhibitory concentrations (MIC). As to the method:
(§2) The figures in the table show minimum inhibitory concentrations (MIC), (μg/ml), calculated for free base. Minimum inhibitory concentrations (MIC) were determined as follows. […] The cells were trypsinized and suspended in the same culture medium at a cell concentration of 1-2 x 10^5 cells/ml. One ml of the cell suspension was pipetted into flat-bottomed plastic tubes (14 mm in diameter) containing a cover slip (12 mm in diameter). The tubes were incubated in 5 % CO2-air at 36 °C for 20 hours. One-half ml of a chlamydial suspension (ca. 1-4 x 103 inclusion body forming units) was added into each tube, which was then centrifuged at 1500 x g for 60 minutes. The tubes were incubated for 1 hour at 36 °C. […] After further incubation at 36 °C for 40-48 hours, the cells on the cover glasses were stained with the Giemsa's solution. […] The MIC was defined as the lowest drug concentration where there were no inclusion bodies in all the cells on the cover slip.

Data set [12] has as its system C. Trachomatics G/ur 1317. The data set is described as above. It counts as cell-based. The settings on record: C. Trachomatics G/ur 1317; McCoy cells, 36 °C for 40-48 hours; calculated for free base; read-out: minimum inhibitory concentrations (MIC). The protocol:
as §2

Data set [13] deals with C. Trachomatics G/ur 1242. Described as above. It counts as cell-based. The settings on record: C. Trachomatics G/ur 1242; McCoy cells, 36 °C for 40-48 hours; calculated for free base; read-out: minimum inhibitory concentrations (MIC). As to the method: as §2
Data set [14] has as its system C. Trachomatics G/ur 931. The description is as above. It counts as cell-based. The settings on record: C. Trachomatics G/ur 931; McCoy cells, 36 °C for 40-48 hours; calculated for free base; read-out: minimum inhibitory concentrations (MIC). As to the method: as §2

Values after ≈ are worked out from the molar mass of the structure shown. Where two headings read alike, the source gives them in different places.

For the compound `Cc1c(F)c(N2CCNCC2)cc2c1c(=O)c(C(=O)O)cn2C1CC1` [Compound 5, 1-cyclopropyl-6-fluoro-5-methyl-7-(1-piperazinyl)-1,4-dihydro-4-oxoquinoline-3-carboxylic acid], the MIC in data set [1] is 0.025 µg/mL (≈ 0.0724 µM); in data set [2], 0.025 µg/mL (≈ 0.0724 µM); in data set [3] it was 0.1 µg/mL (≈ 0.29 µM); in data set [4] it was 0.05 µg/mL (≈ 0.145 µM); in data set [5] it was 0.0125 µg/mL (≈ 0.0362 µM); in data set [6] it was 0.0125 µg/mL (≈ 0.0362 µM). Moreover, the MIC in [7] was 0.0125 µg/mL (≈ 0.0362 µM); in data set [8] it was 0.39 µg/mL (≈ 1.13 µM); in data set [9], 0.2 µg/mL (≈ 0.579 µM). The LD50 at 7 days in data set [10] (orally given to male mice (ddY), dead mice counted after 7 days, Behrens-Kaerber method, read-out: LD₅₀) is more than 2000 mg/kg.

For `Cc1c(F)c(N2CCC(N)C2)c(F)c2c1c(=O)c(C(=O)O)cn2C1CC1` (stereo not drawn) [Compound 3, 7-(3-amino-1-pyrrolidinyl)-1-cyclopropyl-6,8-difluoro-5-methyl-1,4-dihydro-4-oxoquinoline-3-carboxylic acid], the MIC in data set [11] was 0.013 µg/mL (≈ 0.0358 µM); in [12], 0.013 µg/mL (≈ 0.0358 µM); in data set [13] it was 0.013 µg/mL (≈ 0.0358 µM); in data set [14], 0.013 µg/mL (≈ 0.0358 µM); in data set [1], 0.0125 µg/mL (≈ 0.0344 µM); in data set [2], 0.0125 µg/mL (≈ 0.0344 µM). Further, the MIC was 0.2 µg/mL (≈ 0.55 µM) in data set [3]; 0.0125 µg/mL (≈ 0.0344 µM) in [4]; 0.0125 µg/mL (≈ 0.0344 µM) in data set [5]; 0.0125 µg/mL (≈ 0.0344 µM) in data set [6]; 0.0125 µg/mL (≈ 0.0344 µM) in data set [7]; 0.2 µg/mL (≈ 0.55 µM) in data set [8]. Moreover, the MIC in [9] is 0.05 µg/mL (≈ 0.138 µM). Also, the LD50 at 7 days in data set [10] (male, ddY) is more than 2000 mg/kg.

As to `Cc1c(F)c(N2CCNCC2)c(C#N)c2c1c(=O)c(C(=O)O)cn2C1CC1` [Compound D, 8-cyano-1-cyclopropyl-6-fluoro-5-methyl-7-(1-piperazinyl)-1,4-dihydro-4-oxoquinoline-3-carboxylic acid, reference compound], the MIC in [11] is 3.13 µg/mL (≈ 8.45 µM); in [12] it was 3.13 µg/mL (≈ 8.45 µM); in data set [13], 3.13 µg/mL (≈ 8.45 µM); in [14], 1.56 µg/mL (≈ 4.21 µM); in data set [1], 0.1 µg/mL (≈ 0.27 µM); in data set [2] it was 0.1 µg/mL (≈ 0.27 µM). Also, the MIC is 0.39 µg/mL (≈ 1.05 µM) in data set [3]; 0.1 µg/mL (≈ 0.27 µM) in [4]; 0.0125 µg/mL (≈ 0.0337 µM) in data set [5]; 0.1 µg/mL (≈ 0.27 µM) in data set [6]; 0.0125 µg/mL (≈ 0.0337 µM) in data set [7]; 1.56 µg/mL (≈ 4.21 µM) in data set [8]. The MIC in [9] is 0.39 µg/mL (≈ 1.05 µM).

`O=C(O)c1cn(C2CC2)c2c(F)c(N3CCNCC3)c(F)cc2c1=O` [Compound B, 1-cyclopropyl-6,8-difluoro-7-(1-piperazinyl)-1,4-dihydro-4-oxoquinoline-3-carboxylic acid, reference compound]: the MIC in data set [11] is 0.39 µg/mL (≈ 1.12 µM); in data set [12] it was 0.39 µg/mL (≈ 1.12 µM); in data set [13], 0.39 µg/mL (≈ 1.12 µM); in data set [14] it was 0.39 µg/mL (≈ 1.12 µM); in data set [1] it was 0.1 µg/mL (≈ 0.286 µM); in data set [2], 0.1 µg/mL (≈ 0.286 µM). Besides, the MIC is 0.1 µg/mL (≈ 0.286 µM) in [3]; 0.1 µg/mL (≈ 0.286 µM) in data set [4]; 0.0063 µg/mL (≈ 0.018 µM) in data set [5]; 0.2 µg/mL (≈ 0.573 µM) in [6]; 0.0063 µg/mL (≈ 0.018 µM) in data set [7]; 0.39 µg/mL (≈ 1.12 µM) in data set [8]. For the same compound, the MIC in data set [9] was 0.05 µg/mL (≈ 0.143 µM).

In the case of `Cc1c(F)c(N2C[C@@H](C)N[C@@H](C)C2)cc2c1c(=O)c(C(=O)O)cn2C1CC1` [Compound 4, 1-cyclopropyl-6-fluoro-5-methyl-7-(cis-3,5-dimethyl-1-piperazinyl)-1,4-dihydro-4-oxoquinoline-3-carboxylic acid], the MIC was 0.05 µg/mL (≈ 0.134 µM) in data set [1]; 0.025 µg/mL (≈ 0.0669 µM) in data set [2]; 0.2 µg/mL (≈ 0.536 µM) in [3]; 0.025 µg/mL (≈ 0.0669 µM) in data set [4]; 0.025 µg/mL (≈ 0.0669 µM) in [5]; 0.05 µg/mL (≈ 0.134 µM) in data set [6]. The values for the MIC in data set [7], in [8] and in data set [9] were 0.0125 µg/mL (≈ 0.0335 µM), 0.1 µg/mL (≈ 0.268 µM) and 0.39 µg/mL (≈ 1.04 µM), respectively. This compound also displayed an LD50 at 7 days in data set [10] (male, ddY) of more than 2000 mg/kg.
